{"source": "patent US11707474B2", "about": "“Methods for treating acute myeloid leukemia and related conditions” (GlycoMimetics, Inc., priority 2018, dated 2023)", "key": {"[1]": {"system": "human AML blasts", "experiment": "Orthotopic model of human AML with cytarabine and DNR", "format": "in vivo, NOD-SCID mice", "description": "The impact of a compound of Formula (I) on survival was evaluated in NOD-SCID mice in an orthotopic model of human AML in combination with cytarabine and DNR.\n10 mg/kg per day was identified as the minimally active murine dose that augmented cytarabine and DNR survival benefits."}, "[2]": {"system": "relapsed/refractory type acute myeloid leukemia (AML)", "experiment": "Phase 1 clinical outcomes, relapsed/refractory AML, sodium salt infusion with MEC", "format": "in vivo", "settings": "R/R AML", "description": "Three cohorts of 6-7 human subjects with relapsed/refractory type acute myeloid leukemia (AML) each received a total of 15 infusions of 5, 10, or 20 mg/kg/dose of the compound of Formula (I), administered as the sodium salt, over 8 days with a nominal infusion duration of 20 minutes. The nominal infusion duration of 20 minutes was constant across cohorts (e.g., a slower infusion rate was used for the administration of the 5 mg/kg/dose arm than for the 10 mg/kg/dose arm). The formulation for the infusion solution was as follows: […]\n(§1) The first dose of a compound of Formula (I) was administered 24 hours±1 hour prior to the first dose of MEC (mitoxantrone, etoposide, and cytarabine) induction chemotherapy as a sentinel dose to evaluate the effect of the compound of Formula (I) alone (i.e., a single dose of 5, 10, or 20 mg/kg the day before the first chemotherapy day). The compound of Formula (I) was then administered every 12 hours±1 hour on chemotherapy days, starting 2 hours prior to chemotherapy (i.e., 10, 20, or 40 mg/kg per day on chemotherapy days). […] MEC chemotherapy was administered on Days 2-6.\n(§2) The clinical outcome for each subject was assessed at the time of count recovery following completion of induction chemotherapy. Subjects were assigned to one of four response groups: complete remission (“CR”); complete remission with incomplete count recovery (“CRi”); morphologic leukemia-free state (“MLFS”); persistent disease (“PD”). Complete remission was defined as bone marrow blasts <5%; absence of circulating blasts and blasts with Auer rods; absence of extramedullary disease; ANC ≥1.0×10^9/L and platelets ≥100,000×10^9/L. Complete remission with incomplete recovery was defined as: all CR criteria except for residual neutropenia (<1.0×10^9/L) or thrombocytopenia (<100,000×10^9/L). Morphologic leukemia-free state was defined as: bone marrow blasts <5%; absence of blasts with Auer rods; absence of extramedullary disease; no hematologic recovery required. Persistent disease was defined as: bone marrow blasts >5%."}, "[3]": {"system": "KG1 cells", "experiment": "Systemic KG1 AML model survival", "format": "in vivo, NSG female mice", "description": "The potential relevance of these in vitro observations was assessed in NSG female mice with pre-existing disseminated KG1 cells and treated with a compound of Formula (I) (40 mg/kg, IP, QD for 14 days), 5-azacytidine (5 mg/kg, IP, administered on days 7, 10, 13, 16, and 19 (5 doses total)), or the combination of both compounds. Under the conditions of the assay, the median survival time of mice treated with saline alone or a compound of Formula (I) was 69.5 and 69 days, respectively (FIG. 9). Administration of a compound of Formula (I) with 5-azacytidine increased median survival time beyond that obtained with 5-azacytidine treatment alone (>104 days versus 88 days; P=0.014, FIG. 9)."}, "[4]": {"system": "MLL-AF9-induced AML leukemia", "experiment": "Syngeneic MLL-AF9 induced AML leukemia survival model", "format": "in vivo, mice", "settings": "40 mg/kg BID 10 days with cytarabine/DOX", "description": "The impact of a compound of Formula (I) when administered adjunctively with cytarabine/DOX chemotherapy was evaluated in the syngeneic MLL-AF9 induced AML leukemia model.\nBone marrow from mice bearing MLL-AF9-inducted leukemia was harvested and enriched for kit+ cells and frozen in aliquots for subsequent transplant. Recipient mice were then injected with 3×10^4 leukemic cells 2 days after conditioning (Study day 0). Six days after leukemic injection, mice were randomized into 3 groups (n=8/group): a group administered a compound of Formula (I) at 40 mg/kg BID (i.e. 80 mg/kg per day) for 10 days, a group administered cytarabine/DOX (cytarabine at 100 mg/kg QD for 5 days, DOX at 1 mg/kg QD for 2 days), and a group administered a combined regimen of cytarabine/DOX/compound of Formula (I)."}, "[5]": {"system": "relapsed/refractory (R/R) acute myeloid leukemia (AML)", "experiment": "Phase 2 clinical outcomes, relapsed/refractory AML, sodium salt infusion with MEC", "format": "in vivo, human", "description": "In this Phase 2 study related to the Phase 1 study described above (see Example 13), 47 additional subjects were administered the RP2D dose of 10 mg/kg/dose. The data of the 19 subjects in the 10 mg/kg/dose arm of the Phase 1 study was added to the data of these 47 additional subjects, resulting in data for 66 human subjects being considered in the Phase 2 study.\nIn detail, consistent with the Phase 1 study protocols, a total of 66 human subjects with relapsed/refractory (R/R) acute myeloid leukemia (AML) were selected for this study (i.e., the 19 subjects from the 10 mg/kg/dose arm of the Phase 1 study plus 47 additional subjects).\nWhether as part of the Phase 1 study (for 19 of the subjects) or as an additional subject for the Phase 2 study, each subject received a total of 15 infusions of the RP2D dose of 10 mg/kg/dose of the compound of Formula (I), administered as the sodium salt, over 8 days with a nominal infusion duration of 20 minutes (either as part of the Phase 1 study for 19 subjects or as a new Phase 2). The formulation for the infusion solution was as follows: […]\nas §1, with “10” for “5, 10, or 20”, “20” for “10, 20, or 40”\nas §2\nOutcomes shown below provide data for Phase 1 (Example 13, all cohorts combined), Phase 2, and Total (Phase 1 and Phase 2) subject populations."}}, "data": [{"smiles": "CC[C@@H]1CC(C(=O)NCCNC(=O)CCOCCOCCOCCOCCOCCOCCOCCOCCOCCOCCOCCOC)C[C@@H](O[C@@H]2O[C@@H](CO)[C@H](O)C(O[C@@H](CC3CCCCC3)C(=O)O)C2NC(C)=O)C1OC1O[C@@H](C)C(O)[C@H](O)[C@@H]1O", "note": "(stereo partly shown) [compound of Formula (I)]", "values": [{"measurement": "tumor cell chemosensitivity as determined by circulating leukemic cells", "setting": "[1]; 5 mg/kg BID 10 days with cytarabine and DNR", "result": "marked enhancement of tumor cell chemosensitivity"}, {"measurement": "numbers of AML blasts vs cytarabine and DNR alone", "setting": "[1]; 40 mg/kg with cytarabine and DNR", "result": "fewer numbers of AML blasts"}, {"measurement": "minimally active murine dose that augmented cytarabine and DNR survival benefits", "setting": "[1]; with cytarabine and DNR", "result": 10, "unit": "mg/kg per day"}, {"measurement": "CR with incomplete recovery (CRi)", "setting": "[2]; 10 mg/kg/dose", "result": 0, "unit": "n"}, {"measurement": "Morphologic Leukemia-Free State (MLFS)", "setting": "[2]; 10 mg/kg/dose", "result": 0, "unit": "n"}, {"measurement": "CR with incomplete recovery (CRi)", "setting": "[2]; 20 mg/kg/dose", "result": 0, "unit": "n"}, {"measurement": "Morphologic Leukemia-Free State (MLFS)", "setting": "[2]; 20 mg/kg/dose", "result": 0, "unit": "n"}, {"measurement": "All-Cause Mortality 30 days", "setting": "[2]; Phase 1", "result": 0, "unit": "n"}, {"measurement": "CR/CRi Rate: Cytogenetics (SWOG) Favorable risk", "setting": "[2]; Phase 1", "result": 0, "unit": "n"}, {"measurement": "CR/CRi Rate: FLT3-ITD mutated", "setting": "[2]; Phase 1", "result": 0, "unit": "n"}, {"measurement": "CR/CRi Rate: Relapsed ≥12-<24 months", "setting": "[2]; Phase 1", "result": 0, "unit": "n"}, {"measurement": "Partial Remission (PR)", "setting": "[2]; Phase 1", "result": 0, "unit": "n"}, {"measurement": "CR Rate: Cytogenetics Favorable risk", "setting": "[2]; Phase 1 subgroup", "result": 0, "unit": "n"}, {"measurement": "median survival time", "setting": "[3]; 40 mg/kg IP QD 14 days alone", "result": 69, "unit": "days"}, {"measurement": "median survival time", "setting": "[3]; 40 mg/kg IP QD 14 days with 5-azacytidine", "result": "> 104", "unit": "days"}, {"measurement": "MST", "setting": "[4]", "result": 41, "unit": "days"}, {"measurement": "increased lifespan", "setting": "[4]", "result": 64, "unit": "%"}, {"measurement": "response rate (CR/CRi)", "setting": "[5]; after a single course of induction treatment with MEC", "result": "over 40%"}, {"measurement": "severe oral mucositis rate", "setting": "[5]; with MEC", "result": "2-3%"}, {"measurement": "one-year survival rate, MRD negative subjects", "setting": "[5]; with MEC, RP2D 10 mg/kg/dose", "result": 73, "unit": "%"}, {"measurement": "one-year survival rate, all subjects", "setting": "[5]; with MEC, RP2D 10 mg/kg/dose", "result": 35, "unit": "%"}, {"measurement": "median overall survival", "setting": "[5]; with MEC, RP2D 10 mg/kg/dose, 95% CI 5.7-11.4", "result": 8.8, "unit": "months"}]}]}
